Test results from patent US20240124445A1, “BENZENE RING COMPOUND AND USE THEREOF” (NANJING SHIJIANG MEDICINE TECHNOLOGY CO., LTD, priority 2020, published 2024).
Where two headings read alike, the source gives them in different places.

Assays:
NCI-H82 cell = test: Cell viability (Promega CellTiter-Glo) of NCI-H82 cell; type: cell-based; conditions: Homo sapiens
Protocol: Cell viability was detected using the Promega CellTiter-Glo kit, the kit reflected cell viability by directly measuring intracellular ATP content. Small cell lung cancer cell NCI-H82 (ATCC, No. HTB-175) was cultured in 10% fetal bovine serum-containing RPMI1640 medium (+P/S).
Cell viability was detected using the Promega CellTiter-Glo kit, the kit reflected cell viability by directly measuring intracellular ATP content.
Daoy cell was cultured in 10% fetal bovine serum-containing DMEM medium (+P/S), and NCI-H82 cell was cultured in 10% fetal bovine serum-containing RPMI1640 medium (+P/S).
Cell viability was detected using the Promega CellTiter-Glo kit, the kit reflected cell viability by directly measuring intracellular ATP content. In the experiment, the IC50 value of different compounds on different tumor cell lines was detected to determine cell lines that were sensitive or insensitive to different compounds.
Tumor cells were cultured in 10% FBS-containing medium (+p/s), and incubated for 3 h or the following day, then the gradient diluted compound was added. After 3 days of culture, the relevant IC50 (50% inhibiting concentration) was measured. The name, source and culture conditions of each tumor cell line were as follows:
Cell line NCI-H82 (ATCC, No. HTB-175) was cultured in 10% fetal bovine serum-containing RPMI1640 medium (+P/S).

[1] = Stability in human liver microsome; type: in vitro ADME; conditions: liver microsomes, pH 7.4, 1.5 μM drug solution, NADPH, 37° C., read-out: Human T1/2
Protocol: Vortexing for 10 min, the sample was centrifuged with 5594×g for 15 min in centrifuger (Thermo Multifuge×3R). • 10) taking 50 μL supernatant from the centrifuged sample, transferred to 96 well sample plate contain 50 μL water, mixed, and the sample was analyzed using LC-MS/MS.

[2] = NCI-H82 cell, Table 1, read-out: IC50

SMILES | IC50 (NCI-H82 cell; [2]) [µM] | IC50 (NCI-H82 cell; NCI-H82) [µM] | half-life at 1 µM [1] [h]
Cn1ccc2c[n+](C3CCc4ccc(C(F)(F)F)cc4C3=O)ccc21 (stereo not shown) [AB27148] | 2.81 |  | 
Cc1ccccc1C(=O)C[n+]1ccc2c(Cc3ccccc3)c[nH]c2c1 [AB24861] | 4.09 |  | 
CC(Nc1cc[n+](CC(=O)c2ccc(Cl)cc2)cc1)c1ccccc1 (stereo not shown) [AB24814] | 5.54 |  | 
O=C1c2ccc(C(F)(F)F)cc2CCC1[n+]1ccc2c(ccn2Cc2ccccc2)c1 (stereo not shown) [AB24996] | 1.35 |  | 
Cc1ccc(Cc2c[nH]c3c[n+](CC(=O)c4ccc(C(F)(F)F)cc4)ccc23)cc1 [AB27118] | 1.72 |  | 
O=C(C[n+]1ccc2c(Cc3ccccc3)c[nH]c2c1)c1ccc(C(F)(F)F)cc1 [AB27106] | 1.62 |  | 
O=C(C[n+]1ccc2cc(-c3ccccc3)[nH]c2c1)c1ccc(Cl)cc1 [AB24831A] |  | 5.41 | 
COc1ccc(C(=O)C[n+]2ccc(NCc3ccccc3)cc2)cc1 [AB24803A] | 0.23 |  | 
Cc1ccc(C(=O)C[n+]2ccc3c(c2)ncn3Cc2ccccc2)cc1 [AB24885] | 3.13 |  | 
Cc1ccc(C(=O)Cn2cnc(/C=C/c3ccccc3)c2)cc1 [AB24850] | 5.78 |  | 
Cc1ccc2c(c1)C(=O)C([n+]1ccc3c(c1)CCC(c1ccccc1)N3)CC2 (stereo not shown) [AB27133] | 0.34 |  | 
O=C(C[n+]1ccc2c(-c3ccccc3)n[nH]c2c1)c1cccc([N+](=O)[O-])c1 [AB24898] | 6.28 |  | 
O=C(C[n+]1ccc2cc(Cc3ccccc3)[nH]c2c1)c1ccc(Cl)cc1 [AB24828A] |  | 5.79 | 
CCn1ccc2c[n+](C3CCc4ccc(OC(F)(F)F)cc4C3=O)ccc21 (stereo not shown) [AB27155] | 0.65 |  | 
O=C1c2ncccc2CCC1[n+]1ccc(NCc2ccccc2)cc1 (stereo not shown) [AB24923] | 6.85 |  | 
CC(C)(C(=O)c1ccc(Cl)cc1)[n+]1ccc(NCc2ccccc2)cc1 [AB24813] | 5.93 |  | 
O=C(C[n+]1ccc2[nH]c(Cc3ccccc3)cc2c1)c1ccc(C(F)(F)F)cc1 [AB27114] | 3.93 |  | 
Cc1ccc2c(c1)C(=O)C([n+]1ccc(NCc3ccccc3)cc1)C2 (stereo not shown) [AB24905] | 2.52 |  | 
O=C(C[n+]1ccc(NCc2ccccc2)cc1)c1ccc(Cl)nc1 [AB24817] | 4.61 |  | 
Cc1ccc(C(=O)C[n+]2ccc3ccn(Cc4ccccc4)c3c2)cc1 [AB24945] |  | 4.22 | 
O=C(C[n+]1ccc2c(Cc3ccccc3)c[nH]c2c1)c1ccc([N+](=O)[O-])cc1 [AB24863] |  | 3.61 | 
O=C(C[n+]1ccc2c(ccn2Cc2ccccc2)c1)c1ccc(C(F)(F)F)cc1 [AB24987] | 2 |  | 
O=C1c2ccc(F)cc2CCC1[n+]1ccc(NCc2ccccc2)cc1 (stereo not shown) [AB24949] | 0.68 |  | 
CC(c1ccccc1)n1ccc2c[n+](C3CCc4ccc(Cl)cc4C3=O)ccc21 (stereo not shown) [AB27165] | 0.41 |  | 
Cc1ccc2c(c1)C(=O)C([n+]1ccc3c(ccn3C(C)c3ccccc3)c1)CC2 (stereo not shown) [AB27163] | 0.15 |  | 
O=C1c2cc(Cl)ccc2CCC1[n+]1ccc2c(ccn2Cc2ccccc2)c1 (stereo not shown) [AB27124] | 0.03 |  | 1.77
O=C1c2cc(OC(F)(F)F)ccc2CCC1[n+]1ccc2c(ccn2C2CC2)c1 (stereo not shown) [AB27158] | 0.55 |  | 

SMILES | IC50 (NCI-H82 cell; [2]) [µM] | IC50 (NCI-H82 cell; NCI-H82) [µM] | half-life at 1 µM [1] [h]
O=C(C[n+]1ccc2c(Cc3ccccc3)c[nH]c2c1)c1ccc(OC(F)(F)F)cc1 [AB27107] | 2.18 |  | 
CC(c1ccccc1)n1ccc2c[n+](C3CCc4ccc(C(F)(F)F)cc4C3=O)ccc21 (stereo not shown) [AB27161] | 0.28 |  | 
Cc1ccc(C(=O)C[n+]2ccc(N3Cc4ccccc4C3)cc2)cc1 [AB24956] | 0.77 |  | 
Cc1ccc(C(=O)C[n+]2ccc3c(ccn3Cc3ccccc3)c2)cc1 [AB24887] | 0.29 |  | 
O=C(C[n+]1ccc2[nH]c(Cc3ccccc3)cc2c1)c1ccc(Cl)cc1 [AB24827A] |  | 2.89 | 
O=C(C[n+]1ccc(NCc2ccccc2)nc1)c1cccc(OC(F)(F)F)c1 [AB24967] | 3.88 |  | 
Cc1ccc(C(=O)C[n+]2ccc(NCc3ccccc3)c(C)c2)cc1 [AB27169] | 0.32 |  | 
Cc1ccc2c(c1)C(=O)C([n+]1ccc(NCc3ccccc3)cc1)CC2 (stereo not shown) [AB24916] | 0.38 |  | 
CCn1ccc2c[n+](C3CCc4ccc(C(F)(F)F)cc4C3=O)ccc21 (stereo not shown) [AB27149] | 1.98 |  | 
Cc1cccc2c1C(=O)C([n+]1ccc(NCc3ccccc3)cc1)C2 (stereo not shown) [AB24904] | 3.22 |  | 
Cc1ccc(C(=O)C[n+]2ccc3c(Cc4ccccc4)c[nH]c3c2)cc1 [AB24859] | 2.29 |  | 
Cc1ccc2c(c1)C(=O)C([n+]1ccc3c(c1)c(C)cn3Cc1ccccc1)CC2 (stereo not shown) [AB27176] | 0.04 |  | 
COc1cccc2c1CCC([n+]1ccc(NCc3ccccc3)cc1)C2=O (stereo not shown) [AB24954] | 0.39 |  | 
O=C1c2ccc(C(F)(F)F)cc2CCC1[n+]1ccc2c(c1)CCC(c1ccccc1)N2 (stereo not shown) [AB27104] | 0.72 |  | 
O=C(Nc1ccc([N+](=O)[O-])cc1)c1ccc(NCc2ccccc2)cc1 [AB24883] | 6.37 |  | 
Cc1ccc(C(=O)C[n+]2ccc(N3CCc4ccccc4C3)cc2)cc1 [AB24957] | 1.06 |  | 
O=C1c2ccc(OC(F)(F)F)cc2CCC1[n+]1ccc(NCc2ccccc2)cc1 (stereo not shown) [AB27111] | 0.85 |  | 
Cn1ccc2c[n+](C3CCc4ccc(OC(F)(F)F)cc4C3=O)ccc21 (stereo not shown) [AB27154] | 0.87 |  | 
O=C(C[n+]1ccc2c(-c3ccccc3)c[nH]c2c1)c1cccc([N+](=O)[O-])c1 [AB24878] | 3.58 |  | 
Nc1cccc(C(=O)C[n+]2ccc(NCc3ccccc3)cc2)c1 [AB24983] | 3.4 |  | 
O=C(C[n+]1ccc2c(Cc3ccccc3)c[nH]c2c1)c1ccc(Cl)cc1 [AB24835A] |  | 2.75 | 
Cc1ccc2c(c1)CCC([n+]1ccc(NCc3ccccc3)cc1)C2=O (stereo not shown) [AB24917] | 0.12 |  | 
O=C(C[n+]1ccc2c(ccn2Cc2ccccc2)c1)c1ccc(OC(F)(F)F)cc1 [AB24988] | 0.92 |  | 
O=C(C[n+]1ccc2c(ccn2Cc2ccccc2)c1)c1cccc([N+](=O)[O-])c1 [AB24888] | 0.85 |  | 
O=C(C[n+]1ccc2c(c1)CCCC(c1ccccc1)N2)c1ccc(Cl)cc1 (stereo not shown) [AB24839] | 0.99 |  | 11.2
O=C(C[n+]1ccc2c(c1)CC(c1ccccc1)N2)c1ccc(OC(F)(F)F)cc1 (stereo not shown) [AB24999] | 1.3 |  | 
O=C(C[n+]1ccc2c(c1)CCC(c1ccccc1)N2)c1ccc(Cl)cc1 (stereo not shown) [AB24838] | 0.71 |  | 

SMILES | IC50 (NCI-H82 cell; [2]) [µM] | IC50 (NCI-H82 cell; NCI-H82) [µM] | half-life at 1 µM [1] [h]
Cc1ccc2c(c1)CCC([n+]1ccc3c(ccn3C(C)c3ccccc3)c1)C2=O (stereo not shown) [AB27184] | 0.23 |  | 
Cc1ccc(C(=O)C[n+]2csc(NCc3ccccc3)c2)cc1 [AB24851] | 6.57 |  | 
CC(C)c1c[nH]c2c[n+](CC(=O)c3cccc(Cl)c3)ccc12 [AB24938] | 3.96 |  | 
O=C1c2cc(Cl)ccc2CCC1[n+]1ccc(NCc2ccccc2)cc1 (stereo not shown) [AB24913] | 0.18 |  | 7.97
CC(=O)N(Cc1ccccc1)c1cc[n+](CC(=O)c2ccc(C)cc2)cc1 [AB27166] | 0.16 |  | 
O=C1c2cc([N+](=O)[O-])ccc2CCC1[n+]1ccc(NCc2ccccc2)cc1 (stereo not shown) [AB24920] | 1.01 |  | 
O=C(C[n+]1ccc(NCc2ccccn2)cc1)c1ccc(Cl)cc1 [AB24822] | 6.7 |  | 
O=C(C[n+]1ccc(NCc2ccccc2)cc1)c1ccccc1 [AB24807A] | 0.54 |  | 3.31
Cc1ccc(C(=O)C[n+]2ccc(N(C)Cc3ccccc3)cc2)cc1 [AB24955] | 2.8 |  | 
Cc1ccc(C(=O)C[n+]2ccc3c(-c4cccc(C)c4)c[nH]c3c2)cc1 [AB24872] | 1.24 |  | 
Cc1cn(Cc2ccccc2)c2cc[n+](C3CCc4ccc(Cl)cc4C3=O)cc12 (stereo not shown) [AB27142] | 0.06 |  | 12.4
CCCn1ccc2c[n+](C3CCc4ccc(OC(F)(F)F)cc4C3=O)ccc21 (stereo not shown) [AB27145] | 0.25 |  | 
Cc1ccc2c(c1)CCC([n+]1ccc(NCc3ccccc3)nc1)C2=O (stereo not shown) [AB24961] | 0.54 |  | 
Cc1cc2c[n+](C3CCc4ccc(Cl)cc4C3=O)ccc2n1Cc1ccccc1 (stereo not shown) [AB27129] | 0.26 |  | 
Cc1ccc2c(c1)CC([n+]1ccc(NCc3ccccc3)cc1)C2=O (stereo not shown) [AB24906] | 1.66 |  | 
CC(c1ccccc1)n1ccc2c[n+](C3CCc4ccc(OC(F)(F)F)cc4C3=O)ccc21 (stereo not shown) [AB27162] | 0.24 |  | 
O=C(C[n+]1ccc2c(ccn2Cc2ccccc2)c1)c1cccc(Cl)c1 [AB24991] | 0.34 |  | 
Cc1cn(Cc2ccccc2)c2cc[n+](C3CCc4ccc(C(F)(F)F)cc4C3=O)cc12 (stereo not shown) [AB27174] | 0.1 |  | 
O=C1c2cnccc2CCC1[n+]1ccc(NCc2ccccc2)cc1 (stereo not shown) [AB24924] | 3.96 |  | 
O=C1c2cc(F)ccc2CCC1[n+]1ccc(NCc2ccccc2)cc1 (stereo not shown) [AB24948] | 0.1 |  | 
Cc1ccc(C(=O)C[n+]2ccc3c(Cc4cccc(Cl)c4)c[nH]c3c2)cc1 [AB24854] | 1.57 |  | 
COc1ccc(C(=O)C[n+]2ccc(NCc3ccccc3)nc2)cc1 [AB24963] | 0.33 |  | 
O=C(C[n+]1ccc2c(c1)C=CCC(c1ccccc1)N2)c1ccc(Cl)cc1 (stereo not shown) [AB24839B] | 9.13 |  | 
Cc1ccc(C(=O)C[n+]2ccc(N3CCc4ccccc4C3=O)cc2)cc1 [AB24959] | 4.11 |  | 
Cc1cnc(C(=O)C[n+]2ccc(NCc3ccccc3)cc2)cn1 [AB24821] | 7.17 |  | 
Cc1ccc(C(=O)C[n+]2ccc3c(ccn3-c3ccccc3)c2)cc1 [AB24895] | 2.09 |  | 
